In patent US20020165213A1, “Estrogen induced neural stem cell increase” (Neurostasis, Inc., priority 2001, published 2002):

Assays:
[1] = tested on: SVZ proliferating cells; conditions: literature (Alonso, 2000; Tanapat et al., 1999); cited from earlier work
[2] = tested on: proliferating cells in the dentate gyrus; conditions: literature (Alonso, 2000; Tanapat et al., 1999); cited from earlier work
[3] = tested on: embryonic neural stem cells (embryonic day 14); assay: Estradiol on embryonic neural stem cell cultures: secondary spheres from one single sphere; type: cell-based
Method: (§1) To determine if estradiol, the main form of estrogen, increases the number of neural stem cells, the effect of estradiol on neural stem cell cultures was examined. Primary neural stem cells (from embryonic day 14 or adult subventricular zone) were cultured in EGF for seven days to make neurospheres. These primary neurospheres were then dissociated and re-plated in EGF to make pass 1 neurospheres. Pass 1 neurospheres, either embryonic or adult, were dissociated and plated (50,000 cell/ml) in culture medium containing EGF alone or EGF+4 nM estradiol. The culture was allowed to progress for seven days. To determine the number of neural stem cells in each culture, single spheres (15-20 per experiment) were dissociated and plated in single wells of a 96 well plate in culture medium containing EGF only. After 7 days, the number of spheres which came from one single sphere was counted. The following data represent the results from 15-20 replicates.

[4] = tested on: adult neural stem cells (adult subventricular zone); assay: Estradiol on adult neural stem cell cultures: secondary spheres from one single sphere; type: cell-based
Method: as §1

[5] = EGF+4 nM estradiol versus EGF alone

| Compound | cell proliferation / mitotic activity in the SVZ [1] | cell proliferation in the dentate gyrus [2] | increase in the number of embryonic neural stem cells in response to estradiol [3, 5] [%] | # secondary spheres from one single sphere ([3]; Embryo pass 1 neurospheres, EGF+4 nM estradiol, seven days, single spheres re-plated in EGF only, counted after 7 days, 15-20 replicates) | # secondary spheres from one single sphere ([4]; Adult pass 1 neurospheres, EGF+4 nM estradiol, seven days, single spheres re-plated in EGF only, counted after 7 days, 15-20 replicates) | increase in the number of adult neural stem cells in response to estradiol [4, 5] [%] |
| --- | --- | --- | --- | --- | --- | --- |
| C[C@]12C[C@H](O)[C@H]3[C@@H](CCC4=CC(=O)CC[C@@]43C)[C@@H]1CC[C@@H]2C(=O)CO [corticosterone] | no effect | dramatically decreases cell proliferation | – | – | – | – |
| C[C@]12CC[C@@H]3c4ccc(O)cc4CC[C@H]3[C@@H]1CC[C@@H]2O [estradiol] | – | – | 150 | 104±15 | 78±11 | 35 |
| Estrogen | no mitotic activity | stimulate proliferation | – | – | – | – |
